In US20250034110A1, “LPAR1 ANTAGONISTS AND USES THEREOF” (Pipeline Therapeutics, Inc., priority 2021, published 2025):

Target: human LPAR1 (Homo sapiens, UniProt Q92633)
Experiment: In vitro functional assay of lysophosphatidic acid receptor 1 activity (calcium flux)
Assay type: cell-based
Details: B103 cells stably expressing human LPAR1; calcium flux (Fluo-4 NW) after lysophosphatidic acid (18:1) at EC80; 100 pM to 10 μM; read-out: LPAR1 IC50

Chain of human LPAR1 (Q92633 whole entry): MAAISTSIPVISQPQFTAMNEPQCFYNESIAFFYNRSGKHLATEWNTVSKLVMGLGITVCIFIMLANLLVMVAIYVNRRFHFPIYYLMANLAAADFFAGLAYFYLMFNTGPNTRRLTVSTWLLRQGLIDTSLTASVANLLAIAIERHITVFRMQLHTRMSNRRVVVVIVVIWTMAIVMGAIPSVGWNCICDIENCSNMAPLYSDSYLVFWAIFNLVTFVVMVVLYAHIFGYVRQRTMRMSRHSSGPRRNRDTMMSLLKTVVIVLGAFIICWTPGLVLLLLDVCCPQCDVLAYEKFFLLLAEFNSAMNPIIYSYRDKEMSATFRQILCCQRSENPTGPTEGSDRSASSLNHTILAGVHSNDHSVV

Question: `CC(=O)N[C@H]1CC[C@H](N(C(=O)Nc2ccc(C)nc2OC(F)F)c2ccccc2C(C)C)CC1` [Example 267, N-((1r,4r)-4-(3-(2-(difluoromethoxy)-6-methylpyridin-3-yl)-1-(2-isopropylphenyl)ureido)cyclohexyl)acetamide] was tested. Which IC50 did it give?
Answer: 10 to 100 nM

Question: With `Cc1ccc(NC(=O)N(c2ccccc2C(C)C)C2CCC(NC(=O)c3nccs3)CC2)c(OC(F)F)n1` (centres unmarked) [Example 268, N-(4-(3-(2-(difluoromethoxy)-6-methylpyridin-3-yl)-1-(2-isopropylphenyl)ureido)cyclohexyl)thiazole-2-carboxamide] as the compound, how does the IC50 read?
Answer: 100 to 1000 nM

Question: With `Cc1ccc(NC(=O)N(c2ccccc2C(C)C)C2CCC(NS(C)(=O)=O)CC2)c(OC(F)F)n1` (centres unmarked) [Example 269, N-(4-(3-(2-(difluoromethoxy)-6-methylpyridin-3-yl)-1-(2-isopropylphenyl)ureido)cyclohexyl)methanesulfonamide] as the compound, how does the IC50 read?
Answer: 10 to 100 nM

Question: For `CC(=O)NC1CC(N(C(=O)Nc2ccc(C)nc2OC(F)F)c2ccccc2C(C)C)C1` (centres unmarked) [Example 271, N-(3-(3-(2-(difluoromethoxy)-6-methylpyridin-3-yl)-1-(2-isopropylphenyl)ureido)cyclobutyl)acetamide], which IC50 is on record?
Answer: 100 to 1000 nM

Question: Which IC50 does the source give for `Cc1ccc(NC(=O)N(c2ccccc2C(C)C)C2CC(NS(C)(=O)=O)C2)c(OC(F)F)n1` (centres unmarked) [Example 272, N-(3-(3-(2-(difluoromethoxy)-6-methylpyridin-3-yl)-1-(2-isopropylphenyl)ureido)cyclobutyl)methanesulfonamide] here?
Answer: 10 to 100 nM

Question: How did the IC50 turn out when `CC(C)(C)c1ccccc1N(C(=O)Nc1ncc(Br)cc1OC(F)F)C1CCC(C(=O)O)CC1` (centres unmarked) [Example 273] was run?
Answer: 10 to 100 nM

Question: `COc1ccc(NC(=O)N(c2ccccc2C2CC2)[C@H]2CC[C@@H](C(=O)O)CC2)c(OC(F)F)n1` [Example 274] was tested. Which IC50 did it give?
Answer: 100 to 1000 nM

Question: Which IC50 does the source give for `COc1ccc(NC(=O)N(c2ccccc2C2CC2)[C@H]2CC[C@H](C(=O)O)CC2)c(OC(F)F)n1` [Example 275] here?
Answer: 10 to 100 nM

Question: `COc1ccc(NC(=O)N(c2ccccc2C(C)C)C2CCC(=O)CC2)c(OC(F)F)n1` [Example 276, 3-(2-(difluoromethoxy)-6-methoxypyridin-3-yl)-1-(2-isopropylphenyl)-1-(4-oxocyclohexyl)urea] was tested. Which IC50 did it give?
Answer: 100 to 1000 nM

Question: With `COc1ccc(NC(=O)N(c2ccccc2C(C)(C)F)[C@H]2CC[C@H](C(=O)O)CC2)c(OC(F)F)n1` [Example 278, (1r,4r)-4-(3-(2-(difluoromethoxy)-6-methoxypyridin-3-yl)-1-(2-(2-fluoropropan-2-yl)phenyl)ureido)cyclohexane-1-carboxylic acid] as the compound, how does the IC50 read?
Answer: 10 to 100 nM

Question: For `COc1ccc(NC(=O)N(c2ccccc2C(C)C)[C@H]2CC[C@H](C(=O)NS(C)(=O)=O)CC2)c(OC(F)F)n1` [Example 279, (1r,4r)-4-(3-(2-(difluoromethoxy)-6-methoxypyridin-3-yl)-1-(2-isopropylphenyl)ureido)-N-(methylsulfonyl)cyclohexane-1-carboxamide], which IC50 is on record?
Answer: < 10 nM

Question: For `C#CCCS(=O)(=O)NC(=O)[C@H]1CC[C@H](N(C(=O)Nc2ccc(OC)nc2OC(F)F)c2ccccc2C(C)C)CC1` [Example 280], which IC50 is on record?
Answer: < 10 nM

Question: Which IC50 does the source give for `COc1ccc(NC(=O)N(c2ccccc2C(C)C)[C@H]2CC[C@H](C(=O)NO)CC2)c(OC(F)F)n1` [Example 281] here?
Answer: 10 to 100 nM

Question: How did the IC50 turn out when `COc1ccc(NC(=O)N(c2ccccc2C(C)CO)[C@H]2CC[C@H](C(=O)O)CC2)c(OC(F)F)n1` (stereo partly drawn) [Example 282, (1r,4r)-4-(3-(2-(difluoromethoxy)-6-methoxypyridin-3-yl)-l-(2-(1-hydroxypropan-2-yl)phenyl)ureido)cyclohexane-1-carboxylic acid] was run?
Answer: 100 to 1000 nM

Question: How did the IC50 turn out when `COc1ccc(NC(=O)N(c2ccccc2C(C)C)[C@H]2CC[C@H](c3cc(O)no3)CC2)c(OC(F)F)n1` [Example 283, 3-(2-(difluoromethoxy)-6-methoxypyridin-3-yl)-1-((1r,4r)-4-(3-hydroxyisoxazol-5-yl)cyclohexyl)-1-(2-isopropylphenyl)urea] was run?
Answer: 10 to 100 nM

Question: `Cc1ccc(NC(=O)N(c2ccccc2C(C)C)[C@H]2CCC[C@@H](C(=O)O)C2)c(OC(F)F)n1` [Example 285] was tested. Which IC50 did it give?
Answer: < 10 nM

Question: How did the IC50 turn out when `COc1ccc(NC(=O)N(c2ccccc2C(C)C)[C@@H]2CCC[C@H](C(=O)O)C2)c(OC(F)F)n1` [Example 286] was run?
Answer: 10 to 100 nM

Question: Which IC50 does the source give for `Cc1ccc(NC(=O)N(c2ccccc2C(C)C)[C@@H]2CCC[C@H](C(=O)O)C2)c(OC(F)F)n1` [Example 287] here?
Answer: 100 to 1000 nM

Question: For `COc1ccc(NC(=O)N(c2ccccc2C(C)C)[C@H]2CC[C@H](C(=O)O)CC2)c(OC)n1` [Example 288, (1r,4r)-4-(3-(2,6-dimethoxypyridin-3-yl)-1-(2-isopropylphenyl)ureido)cyclohexane-1-carboxylic acid], which IC50 is on record?
Answer: 10 to 100 nM

Question: `COc1ccc(NC(=O)N(c2ccccc2C(C)C)[C@H]2CC[C@H](C(=O)O)CC2)c(OCC(F)F)n1` [Example 289, (1r,4r)-4-(3-(2-(2,2-difluoroethoxy)-6-methoxypyridin-3-yl)-1-(2-isopropylphenyl)ureido)cyclohexane-1-carboxylic acid] was tested. Which IC50 did it give?
Answer: < 10 nM

Question: `COc1cc(C(F)F)ncc1NC(=O)N(c1ccccc1C(C)C)[C@H]1CC[C@H](C(=O)O)CC1` [Example 294, (1r,4r)-4-(3-(6-(difluoromethyl)-4-methoxypyridin-3-yl)-1-(2-isopropylphenyl)ureido)cyclohexane-1-carboxylic acid] was tested. Which IC50 did it give?
Answer: 100 to 1000 nM

Question: How did the IC50 turn out when `CC(C)Oc1cc(C(F)F)ncc1NC(=O)N(c1ccccc1C(C)C)[C@H]1CC[C@H](C(=O)O)CC1` [Example 295, (1r,4r)-4-(3-(6-(difluoromethyl)-4-isopropoxypyridin-3-yl)-1-(2-isopropylphenyl)ureido)cyclohexane-1-carboxylic acid] was run?
Answer: 100 to 1000 nM

Question: With `[2H]C([2H])([2H])Oc1cc(C(F)F)ncc1NC(=O)N(c1ccccc1C(C)C)[C@H]1CC[C@H](C(=O)O)CC1` [Example 296, (1r,4r)-4-(3-(6-(difluoromethyl)-4-(methoxy-d3)pyridin-3-yl)-1-(2-isopropylphenyl)ureido)cyclohexane-1-carboxylic acid] as the compound, how does the IC50 read?
Answer: 100 to 1000 nM

Question: With `CC(C)c1ccccc1N(C(=O)Nc1ccc(Cl)cn1)[C@H]1CC[C@H](C(=O)O)CC1` [Example 297, (1r,4r)-4-(3-(5-chloropyridin-2-yl)-1-(2-isopropylphenyl)ureido)cyclohexane-1-carboxylic acid] as the compound, how does the IC50 read?
Answer: 10 to 100 nM

Question: Which IC50 does the source give for `CC(C)c1ccccc1N(C(=O)Nc1cc(F)c(F)cc1OC(F)F)[C@H]1CC[C@H](C(=O)O)CC1` [Example 298, (1r,4r)-4-(3-(2-(difluoromethoxy)-4,5-difluorophenyl)-1-(2-isopropylphenyl)ureido)cyclohexane-1-carboxylic acid] here?
Answer: < 10 nM

Question: How did the IC50 turn out when `COc1cc(Br)c(F)cc1NC(=O)N(c1ccccc1C(C)C)[C@H]1CC[C@H](C(=O)O)CC1` [Example 299, (1r,4r)-4-(3-(4-bromo-5-fluoro-2-methoxyphenyl)-1-(2-isopropylphenyl)ureido)cyclohexane-1-carboxylic acid] was run?
Answer: < 10 nM

Question: For `COc1cc(F)c(Cl)cc1NC(=O)N(c1ccccc1C(C)C)[C@H]1CC[C@H](C(=O)O)CC1` [Example 300, (1r,4r)-4-(3-(5-chloro-4-fluoro-2-methoxyphenyl)-1-(2-isopropylphenyl)ureido)cyclohexane-1-carboxylic acid], which IC50 is on record?
Answer: 100 to 1000 nM

Question: Which IC50 does the source give for `Cc1ccc(NC(=O)N(c2ccccc2C(C)C)[C@H]2CC[C@@H](C(=O)O)C2)c(OC(F)F)n1` [Example 301] here?
Answer: 10 to 100 nM

Question: How did the IC50 turn out when `Cc1ccc(NC(=O)N(c2ccccc2C(C)C)[C@@H]2CC[C@H](C(=O)O)C2)c(OC(F)F)n1` [Example 302] was run?
Answer: 10 to 100 nM
